Reference: patent US7772241B2, “Variolin derivatives and their use as antitumor agents” (Pharma Mar S.A., priority 2001, dated 2010)
Where two headings read alike, the source gives them in different places.

Assays:
K-562 = experiment: Inhibition of cells growth by colorimetric (SRB) assay, K-562
How it was run: (§1)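 Human tumour cells seeded at 5×10^3/well in RPMI 1640 10% FBS, attached 18 h, then exposed 48 h to samples at 10 to 10^−8 μg/ml in DMSO/EtOH/PBS (0.5:0.5:99). Growth read by SRB staining after TCA fixation, OD 490 nm, triplicate wells; GI, TGI and LC derived.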

A-549 = experiment: Inhibition of cells growth by colorimetric (SRB) assay, A-549
How it was run: as §1

SK-MEL-28 = experiment: Inhibition of cells growth by colorimetric (SRB) assay, SK-MEL-28
How it was run: as §1

HT-29 = experiment: Inhibition of cells growth by colorimetric (SRB) assay, HT-29
How it was run: as §1

LoVo = experiment: Inhibition of cells growth by colorimetric (SRB) assay, LoVo
How it was run: as §1

LoVo-Dox = experiment: Inhibition of cells growth by colorimetric (SRB) assay, LoVo-Dox
How it was run: as §1

DU-145 = experiment: Inhibition of cells growth by colorimetric (SRB) assay, DU-145
How it was run: as §1

LNCaP = experiment: Inhibition of cells growth by colorimetric (SRB) assay, LNCaP
How it was run: as §1

SK-BR-3 = experiment: Inhibition of cells growth by colorimetric (SRB) assay, SK-BR-3; details: for GI50 / CC50: Homo sapiens, SK-BR-3, 48 h
How it was run: as §1

IGROV-1 = experiment: Inhibition of cells growth by colorimetric (SRB) assay, IGROV-1
How it was run: as §1

IGROV-ET = experiment: Inhibition of cells growth by colorimetric (SRB) assay, IGROV-ET
How it was run: as §1

HeLa = experiment: Inhibition of cells growth by colorimetric (SRB) assay, HeLa; details: for GI50: Homo sapiens, HeLa, 48 h; on HELA TGI: unit not given here
How it was run: as §1

HeLa-APL = experiment: Inhibition of cells growth by colorimetric (SRB) assay, HeLa-APL; details: for GI50 / CC50: Homo sapiens, 48 h
How it was run: as §1

PANC-1 = experiment: Inhibition of cells growth by colorimetric (SRB) assay, PANC-1
How it was run: as §1

**Q.** Which “TGI K-562” value (K-562; SRB assay, 48 hours exposure) does the source give for COc1ccnc2c1c(-c1ccnc(N)n1)c1ccnc(N)n12.Cl [Compound 116] here?
**A.** 2.12E−05

**Q.** And the GI50 (K-562; read-out: GI50 K-562, SRB assay, 48 hours exposure)?
**A.** 2870 nM

**Q.** And the CC50 (K-562; read-out: LC50 K-562, SRB assay, 48 hours exposure)?
**A.** 26300 nM

**Q.** What about the “TGI A-549” value (A-549; SRB assay, 48 hours exposure) of the same compound?
**A.** 7.68E−06

**Q.** And the GI50 (A-549; read-out: GI50 A-549, SRB assay, 48 hours exposure)?
**A.** 1150 nM

**Q.** And the CC50 (A-549; read-out: LC50 A-549, SRB assay, 48 hours exposure)?
**A.** 26300 nM

**Q.** And the “TGI MEL-28” value (SK-MEL-28; SRB assay, 48 hours exposure)?
**A.** 2.11E−06

**Q.** What about the GI50 (SK-MEL-28; read-out: GI50 MEL-28, SRB assay, 48 hours exposure) of the same compound?
**A.** 1100 nM

**Q.** And the CC50 (SK-MEL-28; read-out: LC50 MEL-28, SRB assay, 48 hours exposure)?
**A.** 10400 nM

**Q.** What about the “TGI HT-29” value (HT-29; SRB assay, 48 hours exposure) of the same compound?
**A.** 1.88E−05

**Q.** And the GI50 (HT-29; read-out: GI50 HT-29, SRB assay, 48 hours exposure)?
**A.** 6180 nM

**Q.** And the CC50 (HT-29; read-out: LC50 HT-29, SRB assay, 48 hours exposure)?
**A.** 26300 nM

**Q.** And the “TGI LOVO” value (LoVo; SRB assay, 48 hours exposure)?
**A.** 1.22E−06

**Q.** What about the GI50 (LoVo; read-out: GI50 LOVO, SRB assay, 48 hours exposure) of the same compound?
**A.** 550 nM

**Q.** What about the CC50 (LoVo; read-out: LC50 LOVO, SRB assay, 48 hours exposure) of the same compound?
**A.** 26300 nM

**Q.** And the “TGI LOVO-DOX” value (LoVo-Dox; SRB assay, 48 hours exposure)?
**A.** 2.59E−06

**Q.** What about the GI50 (LoVo-Dox; read-out: GI50 LOVO-DOX, SRB assay, 48 hours exposure) of the same compound?
**A.** 1070 nM

**Q.** What about the CC50 (LoVo-Dox; read-out: LC50 LOVO-DOX, SRB assay, 48 hours exposure) of the same compound?
**A.** 26300 nM

**Q.** What about the “TGI DU-145” value (DU-145; SRB assay, 48 hours exposure) of the same compound?
**A.** 2.54E−06

**Q.** And the GI50 (DU-145; read-out: GI50 DU-145, SRB assay, 48 hours exposure)?
**A.** 1130 nM

**Q.** And the CC50 (DU-145; read-out: LC50 DU-145, SRB assay, 48 hours exposure)?
**A.** 26300 nM

**Q.** And the “TGI LN-caP” value (LNCaP; SRB assay, 48 hours exposure)?
**A.** 1.21E−06

**Q.** And the GI50 (LNCaP; read-out: GI50 LN-caP, SRB assay, 48 hours exposure)?
**A.** 602 nM

**Q.** And the CC50 (LNCaP; read-out: LC50 LN-caP, SRB assay, 48 hours exposure)?
**A.** 2430 nM

**Q.** What about the GI50 (SK-BR-3; read-out: GI50 SK-BR-3, SRB assay, 48 hours exposure) of the same compound?
**A.** 892 nM

**Q.** What about the CC50 (SK-BR-3; read-out: LC50 SK-BR-3, SRB assay, 48 hours exposure) of the same compound?
**A.** 3500 nM

**Q.** What about the “TGI SK-BR-3” value (SK-BR-3; SRB assay, 48 hours exposure) of the same compound?
**A.** 1.55E−06

**Q.** What about the “TGI IGROV” value (IGROV-1; SRB assay, 48 hours exposure) of the same compound?
**A.** 1.66E−06

**Q.** What about the GI50 (IGROV-1; read-out: GI50 IGROV, SRB assay, 48 hours exposure) of the same compound?
**A.** 934 nM

**Q.** And the CC50 (IGROV-1; read-out: LC50 IGROV, SRB assay, 48 hours exposure)?
**A.** 26300 nM

**Q.** What about the “TGI IGROV-ET” value (IGROV-ET; SRB assay, 48 hours exposure) of the same compound?
**A.** 2.50E−06

**Q.** And the GI50 (IGROV-ET; read-out: GI50 IGROV-ET, SRB assay, 48 hours exposure)?
**A.** 1370 nM

**Q.** What about the CC50 (IGROV-ET; read-out: LC50 IGROV-ET, SRB assay, 48 hours exposure) of the same compound?
**A.** 26300 nM

**Q.** And the GI50 (HeLa; read-out: GI50 HELA, SRB assay, 48 hours exposure)?
**A.** 151 nM

**Q.** And the “TGI HELA” value (HeLa; SRB assay, 48 hours exposure)?
**A.** 5.26E−07

**Q.** And the GI50 (HeLa-APL; read-out: GI50 HELA-APL, SRB assay, 48 hours exposure)?
**A.** 98.9 nM

**Q.** And the CC50 (HeLa-APL; read-out: LC50 HELA-APL, SRB assay, 48 hours exposure)?
**A.** 2300 nM

**Q.** What about the “TGI HELA-APL” value (HeLa-APL; SRB assay, 48 hours exposure) of the same compound?
**A.** 2.17E−07

**Q.** What about the “TGI PANC-1” value (PANC-1; SRB assay, 48 hours exposure) of the same compound?
**A.** 1.29E−05

**Q.** And the GI50 (PANC-1; read-out: GI50 PANC-1, SRB assay, 48 hours exposure)?
**A.** 1790 nM

**Q.** What about the CC50 (PANC-1; read-out: LC50 PANC-1, SRB assay, 48 hours exposure) of the same compound?
**A.** 26300 nM

**Q.** Which results are given for Nc1nccc(-c2c3cccnc3n3c(N)nccc23)n1 [Deoxyvariolin 4, deoxyvariolin B, reference compound]?
**A.** GI50 (K-562; Homo sapiens, K562, 48 h, read-out: K-562 GI50, SRB assay, 48 hours exposure): 727 nM; CC50 (K-562; Homo sapiens, K562, 48 h, read-out: K-562 LC50, SRB assay, 48 hours exposure): 24600 nM; K-562 TGI (K-562; SRB assay, 48 hours exposure): 2.20E−06; GI50 (A-549; Homo sapiens, A549, 48 h, read-out: A-549 GI50, SRB assay, 48 hours exposure): 63.8 nM; CC50 (A-549; Homo sapiens, A549, 48 h, read-out: A-549 LC50, SRB assay, 48 hours exposure): 12200 nM; A-549 TGI (A-549; SRB assay, 48 hours exposure): 2.62E−07; GI50 (SK-MEL-28; Homo sapiens, SK-MEL-28, 48 h, read-out: MEL-28 GI50, SRB assay, 48 hours exposure): 69.2 nM; CC50 (SK-MEL-28; Homo sapiens, SK-MEL-28, 48 h, read-out: MEL-28 LC50, SRB assay, 48 hours exposure): 321 nM; MEL-28 TGI (SK-MEL-28; SRB assay, 48 hours exposure): 1.49E−07; GI50 (HT-29; Homo sapiens, HT-29, 48 h, read-out: HT-29 GI50, SRB assay, 48 hours exposure): 117 nM; CC50 (HT-29; Homo sapiens, HT-29, 48 h, read-out: HT-29 LC50, SRB assay, 48 hours exposure): 11300 nM; HT-29 TGI (HT-29; SRB assay, 48 hours exposure): 4.98E−07; GI50 (LoVo; Homo sapiens, LoVo, 48 h, read-out: LOVO GI50, SRB assay, 48 hours exposure): 102 nM; CC50 (LoVo; Homo sapiens, LoVo, 48 h, read-out: LOVO LC50, SRB assay, 48 hours exposure): 22100 nM; LOVO TGI (LoVo; SRB assay, 48 hours exposure): 2.54E−07; GI50 (LoVo-Dox; Homo sapiens, 48 h, read-out: LOVO-DOX GI50, SRB assay, 48 hours exposure): 101 nM; CC50 (LoVo-Dox; Homo sapiens, 48 h, read-out: LOVO-DOX LC50, SRB assay, 48 hours exposure): 36100 nM; LOVO-DOX TGI (LoVo-Dox; SRB assay, 48 hours exposure): 2.96E−07; GI50 (DU-145; Homo sapiens, DU-145, 48 h, read-out: DU-145 GI50, SRB assay, 48 hours exposure): 95.2 nM; CC50 (DU-145; Homo sapiens, DU-145, 48 h, read-out: DU-145 LC50, SRB assay, 48 hours exposure): 5300 nM; DU-145 TGI (DU-145; SRB assay, 48 hours exposure): 2.46E−07; GI50 (LNCaP; Homo sapiens, LNCaP, 48 h, read-out: LN-caP GI50, SRB assay, 48 hours exposure): 64.2 nM; CC50 (LNCaP; Homo sapiens, LNCaP, 48 h, read-out: LN-caP LC50, SRB assay, 48 hours exposure): 272 nM; LN-caP TGI (LNCaP; SRB assay, 48 hours exposure): 1.32E−07; GI50 (SK-BR-3; read-out: SK-BR-3 GI50, SRB assay, 48 hours exposure): 73.6 nM; CC50 (SK-BR-3; read-out: SK-BR-3 LC50, SRB assay, 48 hours exposure): 345 nM; SK-BR-3 TGI (SK-BR-3; SRB assay, 48 hours exposure): 1.59E−07; GI50 (IGROV-1; Homo sapiens, IGROV-1, 48 h, read-out: IGROV GI50, SRB assay, 48 hours exposure): 80.8 nM; CC50 (IGROV-1; Homo sapiens, IGROV-1, 48 h, read-out: IGROV LC50, SRB assay, 48 hours exposure): 1320 nM; IGROV TGI (IGROV-1; SRB assay, 48 hours exposure): 8.10E−08; GI50 (IGROV-ET; Homo sapiens, 48 h, read-out: IGROV-ET GI50, SRB assay, 48 hours exposure): 129 nM; CC50 (IGROV-ET; Homo sapiens, 48 h, read-out: IGROV-ET LC50, SRB assay, 48 hours exposure): 22900 nM; IGROV-ET TGI (IGROV-ET; SRB assay, 48 hours exposure): 3.42E−07; GI50 (HeLa; read-out: HELA GI50, SRB assay, 48 hours exposure): 81.1 nM; HELA TGI (HeLa; SRB assay, 48 hours exposure): 1.60E−07; GI50 (HeLa-APL; read-out: HELA-APL GI50, SRB assay, 48 hours exposure): 66 nM; CC50 (HeLa-APL; read-out: HELA-APL LC50, SRB assay, 48 hours exposure): 318 nM; HELA-APL TGI (HeLa-APL; SRB assay, 48 hours exposure): 1.45E−07; GI50 (PANC-1; Homo sapiens, PANC-1, 48 h, read-out: PANC-1 GI50, SRB assay, 48 hours exposure): 162 nM; CC50 (PANC-1; Homo sapiens, PANC-1, 48 h, read-out: PANC-1 LC50, SRB assay, 48 hours exposure): 15400 nM; PANC-1 TGI (PANC-1; SRB assay, 48 hours exposure): 1.76E−06
